Structures are written as SMILES.

The test system of this experiment is Galium aparine. Kind of experiment: Greenhouse post-emergence herbicidal activity against GALAP. The format is in vivo. Conditions: application rate 0.5 kg/ha, scale 0 to 100. The source says: The seeds of the test plants were sown separately for each species. For the post-emergence treatment, the test plants were first grown to a height of 3 to 15 cm, depending on the plant habit, and only then treated with the active ingredients which had been suspended or emulsified in water. For this purpose, the test plants were either sown directly and grown in the same containers, or they were first grown separately as seedlings and transplanted into the test containers a few days prior to treatment. Depending on the species, the plants were kept at 10-25° C. or 20-35° C. The test period extended over 2 to 4 weeks. During this time, the plants were tended, and their response to the individual treatments was evaluated. Evaluation was carried out using a scale from 0 to 100. 100 means no emergence of the plants, or complete destruction of at least the aerial moieties, and 0 means no damage, or normal course of growth. A good herbicidal activity is given at values of at least 70 and a very good herbicidal activity is given at values of at least 85. The plants used in the greenhouse experiments belonged to the following species: [table]

Take `COCCOc1cccc(C2=C(O)c3nccnc3N(CC(F)F)S2(=O)=O)c1C(F)(F)F` [I-6, 1-(2,2-difluoroethyl)-3-[3-(2-methoxyethoxy)-2-(trifluoromethyl)phenyl]-2,2-dioxo-pyrazino[2,3-c]thiazin-4-ol]: the “herbicidal activity against GALAP” value is on record as “very good (a very good herbicidal activity is given at values of at least 85)”.

These data come from patent US8575068B2, “Pyrazinothiazines having herbicidal action” (BASF SE, priority 2010, dated 2013).
